Data set [1] can be described thus: Solubility testing in buffer (HPLC-UV). Particulars: buffer.
Another data set relates to female NMRI-mice. The data set is described as follows: Gastric emptying and intestinal passage in mice. In kind it is in vivo. The conditions noted are these: versus vehicle control. The method, then: Female NMRI-mice of a body weight between 20 and 30 g were used. Mice were adapted to housing conditions for at least one week. Mice were overnight fasted, while water remained available all the time. On the study day, mice were weighed, single-caged and allowed access to 500 mg of feed for 30 min, while water was removed. At the end of the […], remaining feed was removed and weighed. Then, the test compound/reference compound or its vehicle in the control group was administered subcutaneously. 60 min later, to allow the compound to reach relevant plasma exposure, a coloured, non-caloric bolus was instilled via gavage into the stomach. After another 30 min, the animals were sacrificed and the stomach and the small intestine prepared. The filled stomach was weighed, emptied, carefully cleaned and dried and reweighed. The stomach content, calculated as weight of filled subtracted by the weight of emptied stomach, indicated the degree of gastric emptying. The small intestine was straightened without force and measured in length. Then the distance from the gastric beginning of the gut to the tip of the farthest traveled intestinal content bolus was measured. The intestinal passage was given as ratio in percent of the latter distance and the total length of the small intestine. […] Statistical analyses were performed with Everstat 6.0 by 1-way-ANOVA, followed by Dunnett's as post-hoc test. Dunnett's Test was applied to compare versus vehicle control. Differences were considered statistically significant at the p<0.05 level.

For data set [2], the system named is female leptin-receptor deficient diabetic db/db mice. The data set is described as follows: Blood glucose and HbA1c in leptin-receptor deficient diabetic db/db mice (method 3). It counts as in vivo. In short, it runs like this: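 Female db/db mice (9–10 weeks at arrival) dosed at 5 mL/kg for 4 weeks with free food and water. Tail blood without anaesthesia: glucose by hexokinase and HbA1c measured before and at end of treatment, plus a 24-h glucose profile; repeated-measures two-way ANOVA with Dunnett's versus vehicle db/db, p<0.05.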

A further data set has as its target T1, human GIP receptor (Homo sapiens, UniProt P48546).
T1 construct: expressed in transfected cells
T1 sequence (P48546 22-466): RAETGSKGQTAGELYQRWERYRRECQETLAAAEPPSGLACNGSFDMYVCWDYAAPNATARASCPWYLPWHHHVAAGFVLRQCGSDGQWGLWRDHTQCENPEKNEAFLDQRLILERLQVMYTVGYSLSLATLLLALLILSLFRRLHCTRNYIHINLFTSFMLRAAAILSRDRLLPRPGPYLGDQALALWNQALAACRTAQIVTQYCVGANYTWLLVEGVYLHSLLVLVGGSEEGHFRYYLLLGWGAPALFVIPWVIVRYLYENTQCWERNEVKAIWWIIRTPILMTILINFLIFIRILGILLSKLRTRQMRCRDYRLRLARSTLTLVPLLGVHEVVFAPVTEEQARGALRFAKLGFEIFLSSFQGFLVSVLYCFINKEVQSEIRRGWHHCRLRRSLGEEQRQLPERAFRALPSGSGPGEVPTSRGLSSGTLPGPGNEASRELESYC
Description: cAMP response (HTRF) of HEK-293 cells stably expressing human GIP receptor. It counts as cell-based. Particulars: Table 7; cAMP formation; read-out: EC50 hGIP R. Summed up:
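HTRF read-out of cellular cAMP after 30 min compound exposure at room temperature. Accutase-detached cells were suspended at 400000 cells/ml in HBSS buffer containing 20 mM HEPES, 0.1% BSA and 2 mM IBMX phosphodiesterase inhibitor.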
For orientation: TR-FRET usually uses a lanthanide donor and a delayed reading to cut background.

*1 amine or outer side, *2 acyl side, *3 side chain or, on linkers, in order; H or OH if unused. Where a SMILES comes first, the peptide text is derived from it. Side-chain parts run from the residue outwards. [ ]: non-standard residue; d: D form. The star is where a group is joined. γGlu = O=C(O)[C@H](CCC(=O)[*:2])N[*:1]; Palmitoyl = CCCCCCCCCCCCCCCC(=O)*; Aib = CC(C)(N)C(=O)O

Broadly, the solubility is the dissolved amount per volume that the medium holds. Higher therefore signals a readily soluble substance. One may read the EC50 as the concentration that produces a half-maximal response.

As to `CCCCCCCCCCCCCCCC(=O)N[C@@H](CCC(=O)NCCCC[C@H](NC(=O)[C@H](CCC(N)=O)NC(=O)[C@@H](NC(=O)[C@H](CO)NC(=O)[C@H](CC(C)C)NC(=O)[C@H](CC(=O)O)NC(=O)[C@H](CO)NC(=O)[C@@H](NC(=O)[C@H](Cc1ccccc1)NC(=O)[C@@H](NC(=O)CNC(=O)[C@H](CCC(=O)O)NC(=O)C(C)(C)NC(=O)[C@@H](N)Cc1ccc(O)cc1)[C@@H](C)O)[C@@H](C)O)[C@@H](C)CC)C(=O)N[C@@H](CCC(=O)O)C(=O)N[C@@H](CCCCN)C(=O)N[C@@H](CCCNC(=N)N)C(=O)N[C@@H](C)C(=O)N[C@@H](C)C(=O)NC(C)(C)C(=O)N[C@@H](CCC(=O)O)C(=O)N[C@@H](Cc1ccccc1)C(=O)N[C@H](C(=O)N[C@@H](CCC(=O)O)C(=O)N[C@@H](Cc1c[nH]c2ccccc12)C(=O)N[C@@H](CC(C)C)C(=O)N[C@@H](CCCCN)C(=O)N[C@@H](CC(N)=O)C(=O)N[C@H](C(=O)NCC(=O)N1CCC[C@H]1C(=O)N[C@@H](CO)C(=O)N[C@@H](CO)C(=O)NCC(=O)N[C@@H](C)C(=O)N1CCC[C@H]1C(=O)N1CCC[C@H]1C(=O)N1CCC[C@H]1C(=O)N[C@@H](CO)C(N)=O)[C@@H](C)O)[C@@H](C)CC)C(=O)O` [SEQ ID NO: 9, Y-Aib-E-G-T-F-T-S-D-L-S-I-Q-K(γE-x53)-E-K-R-A-A-Aib-E-F-I-E-W-L-K-N-T-G-P-S-S-G-A-P-P-P-S-NH2] (H-Y[Aib]EGTFTSDLSIQK([γGlu-Palmitoyl])EKRAA[Aib]EFIEWLKNTGPSSGAPPPS-NH2), the solubility at 2 h in data set [1] (pH 4.5) and in data set [1] (pH 7.4) was > 1000 µg/mL each time. In addition, the “increase of remaining gastric contents” value with female NMRI-mice (1 μg/kg s.c.) is recorded as 32%; in the data set on female NMRI-mice (3 μg/kg s.c.), 79%; with female NMRI-mice (10 μg/kg s.c.), 111%. Besides, the figures for the “reduction of intestinal passage” value with female NMRI-mice (1 μg/kg s.c.), in the data set with female NMRI-mice (3 μg/kg s.c.) and in the data set on female NMRI-mice (10 μg/kg s.c.) were 49%, 62% and 64%, respectively. Also, in data set [2] (10, 30 and 100 μg/kg s.c. once daily, 4 weeks, all three doses), the “HbA1c level versus db/db control mice at the end of the study” value is “lower HbA1c level”. The “blood glucose level versus db control mice at the end of the study” value in data set [2] (10, 30 or 100 μg/kg s.c. once daily, 4 weeks) was “significant lower blood glucose level”. The “blood glucose after 4 weeks of treatment” value in data set [2] (10, 30 or 100 μg/kg s.c. once daily, 4 weeks, compared with liraglutide) was “strong and dose-dependent decrease in blood glucose, superior to liraglutide in the medium and highest dose”. In addition, the “blood glucose compared to db/db control mice, 24 h profile” value in data set [2] (single 100 μg/kg s.c., fed db/db mice) was “significant decrease in blood glucose”. Also, the 50% effective concentration (EC50) at human GIP receptor came to 5.7 pM.

Values taken from patent US9670261B2 (Sanofi, priority 2012, dated 2017).
